Literature values as cited in paper PMC11232374, “Safety, tolerability, and pharmacokinetics of HRS9432(A) injection in healthy Chinese subjects: a phase-I randomized, double-blind, dose escalation, placebo-controlled study” (Antimicrobial Agents and Chemotherapy, 2024).

Details: after a single intravenous dose
Text: Echinocandin-class antifungal drugs currently available on the market include caspofungin, micafungin, and anidulafungin. The chemical structures of these drugs contribute to their relatively short half-life, necessitating daily administration in clinical practice ([3]). Rezafungin is a long-acting echinocandin antifungal drug, based on the structure of anidulafungin to enhance metabolic stability. […] The results of its Pha ...

## Rezafungin
  elimination half-life: 150 h
